# According to patent US4717716A, “Immuno-regulator” (Nihon University, priority 1985, dated 1988):
# Values joined by “and” are separate entries in the source; they are usually repeats but may differ in a detail not shown here. Equal values may be shown once.
# Key:
# DDY male mouse = assay: Acute toxicity of L-carnosine in mice; type: in vivo
# Method: L-carnosine was administered peritoneally or orally in different amounts to a group of 10 mice and acute toxic symptoms were observed 5 hours after administration. […] L-carnosine was dissolved in a physiological saline so as to give a dose of 0.1 to 0.3 ml/10 g.
# [1] = Physicochemical properties of L-carnosine
# [2] = test system: anti-SRBC antibody in serum of mice immunized with SRBC; assay: Determination of serum antibody value (hemagglutination titer, HA-titer); type: in vivo, mouse; settings: for Anti-SRBC Antibody Value N: maximal positive dilution 2^N
# Method: Blood was collected in the PFC reaction from carotid arteries of a group of five mice, from which was separated a serum in a conventional manner for determination of hemagglutination titer (HA-titer). The test serum was diluted with a phosphate buffered saline (PBS) containing 0.5-1% of a serum from a normal rabbit, and was evaluated using SRBC. The maximal dilution showing positive reaction was represented by 2^N, wherein N represents an antibody value.
# [3] = test system: plaque-forming cells of DDY mouse immunized with sheep red blood cells (SRBC); assay: PFC method (hemolytic plaque-forming cells) in mice immunized with SRBC; type: in vivo; settings: for PFC Number per g. Spleen: 4 days after immunization; for PFC reaction: mouse of 5 weeks age, 2.5×10^8 SRBC
# [4] = test system: male DDY mouse sensitized with picryl chloride; assay: Delayed hypersensitivity reaction (picryl chloride contact dermatitis); type: in vivo; settings: for Increase of Ear control %: 0 mg/kg/day = 100; for Thickness × 10^-3cm Increase of Ear: 1% picryl chloride, average of 8 mice ± S.D.
# Description: A male DDY mouse of 5 weeks are weighing about 20 g was used to detect its contact dermatitis by means of 2, 4, 6-trinitro-chlorobenzene (picryl chloride) (available from Tokyo Chemical Industry Co., Ltd). An ethanol solution of 1% picryl chloride was impregnated into 4-layered gauge (1×1 cm), which was then contacted with a shaved abdomen of the mouse for 10 seconds to cause primary sensitization. The secondary sensitization for test was caused on seventh day by applying an olive oil solution of 1% picryl chloride on both surfaces of one ear by means of a paint brush. The other ear had applied only olive oil as a control. After 24 hours, the mouse was anesthetized with ether, and thickness of the ear was determined in the order of 1/100 mm by a micrometer having precision of 1/100 mm. The delayed hypersensitivity reaction was calculated as follows: […]
# (Thickness of Ear Applied with Picryl Chloride after 24 Hours--Thickness of Ear before Application) minus (Thickness of Ear Applied with Olive Oil After 24 Hours--Thickness of Ear before Application).
# L-carnosine was administered subcutaneously in the indicated amount for 14 days. On the 7th day, sensitization was conducted by 1% picryl chloride, and examination was carried out on 7 days later. Values are shown in an average of 8 mices ±S.D.
# [5] = formulated by LISA corporation in Spain since 10 years; cited from earlier work
# [6] = SRBC antigen amount 2.5 × 10^9, 100 mg/Kg/day S.C. for six days
# [7] = SRBC antigen amount 5 × 10^7, 100 mg/Kg/day S.C. for six days
# [8] = mice of 2 weeks age, 100 mg/Kg/day S.C., 2.5 × 10^8 SRBC
# [9] = mice of 5 weeks age, 100 mg/Kg/day S.C., 2.5 × 10^8 SRBC
# [10] = mice of 30 weeks age, 100 mg/Kg/day S.C., 2.5 × 10^8 SRBC
# [11] = 50 mg/kg/day subcutaneously for 14 days
# [12] = 250 mg/kg/day subcutaneously for 14 days
# [13] = 500 mg/kg/day subcutaneously for 14 days
structure (smiles),measurement,setting,value
"NCCC(=O)N[C@@H](Cc1cnc[nH]1)C(=O)O [L-carnosine, β-alanyl-L-histidine]","acute toxicity, overall",DDY male mouse; DDY male mouse,very low toxicity
same,effective amount as fraction of acute toxicity LD50,"DDY male mouse; mouse, in vivo",1/181
same,mice killed,"DDY male mouse; mouse, in vivo",one of the 10
same,toxic effect of oral administration,"DDY male mouse; oral 15,000 mg/Kg, mice",little effect
same,LD50 (minimal lethal dose),"DDY male mouse; oral, DDY male mouse, value on 72 hours","> 14,930 mg/Kg"
same,toxic symptoms,"DDY male mouse; peritoneal 15,000 mg/Kg, from about 30 minutes, a half of the mice","depression of voluntary motility, abdominal position, depression and irregularity of respiration rate"
same,LD 100,"DDY male mouse; peritoneal administration, mice","15,000 mg/Kg"
same,LD50 (95% confidence limit),"DDY male mouse; peritoneal, DDY male mouse, value on 72 hours","9,087 (8,320-9,925) mg/Kg and 9,087 mg/Kg"
same,solubility in water,[1],readily soluble in water
same,Anti-SRBC Antibody Value N,"[2]; 25 mg/kg for 6 days, 2.5 × 10^8 SRBC",9
same,Anti-SRBC Antibody Value N,"[2]; 50 mg/kg for 6 days, 2.5 × 10^8 SRBC",10
same,Anti-SRBC Antibody Value N,"[2]; 250 mg/kg for 6 days, 2.5 × 10^8 SRBC",9
same,Anti-SRBC Antibody Value N,"[2]; 500 mg/kg for 6 days, 2.5 × 10^8 SRBC",8
same,Anti-SRBC Antibody Value N,[2]; [6],8
same,Anti-SRBC Antibody Value N,[2]; [7],4
same,hemagglutination reaction,[2]; level of more than 500 mg/Kg,subsided
same,Anti-SRBC Antibody Value N,[2]; [8],6-7
same,Anti-SRBC Antibody Value N,[2]; [9],9-10
same,Anti-SRBC Antibody Value N,[2]; [10],9
same,PFC Number per Chamber,[3]; 25 mg/kg,53.0 ± 6.1
same,PFC Number per Spleen,[3]; 25 mg/kg,10.7 × 10^4
same,PFC Number per g. Spleen (%),"[3]; 25 mg/kg for 6 days, 2.5 × 10^8 SRBC, 0 mg/kg = 100",133%
same,PFC Number per g. Spleen,"[3]; 25 mg/kg for 6 days, 2.5 × 10^8 SRBC, mice",7.6 × 10^5
same,PFC Number per Chamber (%),"[3]; 25 mg/kg, 144 h",88%
same,PFC Number per Spleen (%),"[3]; 25 mg/kg, 144 h",123%
same,Weight of Spleen (%),"[3]; 25 mg/kg, 144 h",92%
same,PFC Number per Chamber,[3]; 50 mg/kg,73.6 ± 6.2
same,PFC Number per Spleen,[3]; 50 mg/kg,14.9 × 10^4
same,PFC Number per g. Spleen (%),"[3]; 50 mg/kg for 6 days, 2.5 × 10^8 SRBC, 0 mg/kg = 100",149%
same,PFC Number per g. Spleen,"[3]; 50 mg/kg for 6 days, 2.5 × 10^8 SRBC, mice",8.5 × 10^5
same,PFC Number per Chamber (%),"[3]; 50 mg/kg, 144 h",122%
same,PFC Number per Spleen (%),"[3]; 50 mg/kg, 144 h",171%
same,Weight of Spleen (%),"[3]; 50 mg/kg, 144 h",116%
same,effect on the PFC response,[3]; 100 mg/kg,No effect
same,PFC decreased,"[3]; 100 mg/kg, 144 h",30%
same,PFC increased,"[3]; 100 mg/kg, 144 h",30%
same,PFC Number per Chamber,[3]; 250 mg/kg,69.8 ± 6.5
same,PFC Number per Spleen,[3]; 250 mg/kg,14.6 × 10^4
same,PFC Number per g. Spleen (%),"[3]; 250 mg/kg for 6 days, 2.5 × 10^8 SRBC, 0 mg/kg = 100",167%
same,PFC Number per g. Spleen,"[3]; 250 mg/kg for 6 days, 2.5 × 10^8 SRBC, mice",9.5 × 10^5
same,PFC Number per Chamber (%),"[3]; 250 mg/kg, 144 h",116%
same,PFC Number per Spleen (%),"[3]; 250 mg/kg, 144 h",168%
same,Weight of Spleen (%),"[3]; 250 mg/kg, 144 h",100%
same,PFC Number per Chamber,[3]; 500 mg/kg,64.8 ± 4.9
same,PFC Number per Spleen,[3]; 500 mg/kg,8.3 × 10^4
same,PFC Number per g. Spleen (%),"[3]; 500 mg/kg for 6 days, 2.5 × 10^8 SRBC, 0 mg/kg = 100",107%
same,PFC Number per g. Spleen,"[3]; 500 mg/kg for 6 days, 2.5 × 10^8 SRBC, mice",6.1 × 10^5
same,PFC Number per Chamber (%),"[3]; 500 mg/kg, 144 h",107%
same,PFC Number per Spleen (%),"[3]; 500 mg/kg, 144 h",95%
same,Weight of Spleen (%),"[3]; 500 mg/kg, 144 h",89%
same,PFC Number per g. Spleen (%),"[3]; 2 weeks age, 100 mg/Kg/day S.C., 2.5 × 10^8 SRBC, normal = 100",64%
same,PFC Number per g. Spleen (%),"[3]; 5 weeks age, 100 mg/Kg/day S.C., 2.5 × 10^8 SRBC, normal = 100",110%
same,PFC Number per g. Spleen (%),"[3]; 30 weeks age, 100 mg/Kg/day S.C., 2.5 × 10^8 SRBC, normal = 100",177%
same,PFC Number per g. Spleen (%),"[3]; SRBC 2.5 × 10^9, 100 mg/Kg/day S.C. six days, normal = 100",71%
same,PFC Number per g. Spleen (%),"[3]; SRBC 5 × 10^7, 100 mg/Kg/day S.C. six days, normal = 100",119%
same,PFC Number per g. Spleen (%),"[3]; SRBC 5 × 10^8, 100 mg/Kg/day S.C. six days, normal = 100",53%
same,PFC Number per g. Spleen,[3]; [6],10.2 × 10^5
same,PFC Number per g. Spleen,[3]; [7],5.0 × 10^5
same,PFC Number per g. Spleen,"[3]; SRBC antigen amount 5 × 10^8, 100 mg/Kg/day S.C. for six days",8.2 × 10^5
same,effect on the PFC response,"[3]; immature mouse of 2 weeks age, 100 mg/Kg for 9 days",suppressed
same,PFC Number per g. Spleen,[3]; [8],4.8 × 10^5
same,PFC Number per g. Spleen,[3]; [9],12.5 × 10^5
same,PFC Number per g. Spleen,[3]; [10],11.7 × 10^5
same,PFC reaction,[3]; 50 and 250 mg/Kg for 6 days,increased
same,PFC reaction,[3]; dose of more than 500 mg/Kg,subsided
same,effect on the PFC response,"[3]; old mouse of 30 weeks age, 100 mg/Kg for 9 days",doubly strengthened
same,optimum dosage for the immuno-regulatory action,[3]; sc,100 mg/kg/day
same,Weight of Spleen (%),"[3]; sc, 100 mg/kg/day, 336 h",93%
same,PFC Number per Chamber (%),"[3]; sc, 100 mg/kg/day, 840 h",107%
same,PFC Number per Spleen (%),"[3]; sc, 100 mg/kg/day, 840 h",110%
same,Weight of Spleen (%),"[3]; sc, 100 mg/kg/day, 840 h",100%
same,Weight of Spleen (%),"[3]; sc, 100 mg/kg/day, 5040 h",121%
same,Increase of Ear control %,[4]; [11],122.6%
same,Thickness × 10^-3cm Increase of Ear,[4]; [11],14.1 ± 3.6 × 10^-3cm
same,Increase of Ear control %,[4]; [12],136.5%
same,Thickness × 10^-3cm Increase of Ear,[4]; [12],15.7 ± 2.5 × 10^-3cm
same,Increase of Ear control %,[4]; [13],185.2%
same,Thickness × 10^-3cm Increase of Ear,[4]; [13],21.3 ± 8.7 × 10^-3cm
same,DHR with 1% picryl chloride,"[4]; doses of 50, 250 and 500 mg/Kg",increasing trend of reaction
same,safety in use as anorexia treating agent,[5],confirmed to be safe
